Measurements taken from US11091419B2, “Preparation and purification of biphenyldicarboxylic acids” (ExxonMobil Chemical Patents Inc., priority 2017, dated 2021).

Test: solubility versus temperature in water (FIG. 2)
Format: physicochemical
Conditions: read from FIG. 2

O=C(O)c1ccc(-c2ccc(C(=O)O)cc2)cc1 [4,4′-BPDA, 4,4′-biphenyldicarboxylic acid]
water solubility (BPDA loading in the aqueous phase) (320° C.): ca. 10 wt %
water solubility (BPDA loading in the aqueous phase) (340° C.): ca. 20 wt %
